Where two headings read alike, the source gives them in different places.
What was measured:
[1] = tested on: MIA Paca-2 human pancreatic adenocarcinoma; assay: MIA Paca-2 pancreatic xenograft model; type: in vivo, mouse
[2] = tested on: BxPC-3 human pancreatic adenocarcinoma; assay: BxPC-3 pancreatic xenograft model; type: in vivo, mouse; details: cisplatin 4 mg/kg
Procedure: The effect of Compound 8 on TGI was evaluated in the BxPC-3 human pancreatic adenocarcinoma nude mouse (female Crl:NU(NCr)-Foxn1^nu) xenograft model.

[3] = tested on: A2780 human ovarian cancer; assay: A2780 ovarian xenograft model; type: in vivo, mouse
Procedure: The effect of Compound 8 on tumor growth inhibition (TGI) was evaluated in the A2780 human ovarian cancer nude mouse (female Crl:NU(NCr)-Foxn1^nu) xenograft model.

[4] = tested on: patients; details: cited from earlier work
[5] = tested on: rats; details: 50 rats treated for 3 weeks, 3×1 mg/kg body weight/week; cited from earlier work
[6] = tested on: NCI-H520 human NSCLC; assay: NCI-H520 lung xenograft model; type: in vivo, mouse
Procedure: The effect of Compound 8 also was evaluated in the NCI-H520 human NSCLC nude mouse (female CrTac:NCr-Foxn1^nu) xenograft model. […] All treatments were statistically significant compared to vehicle (p<0.0001).

[7] = tested on: Calu-6 human NSCLC; assay: Calu-6 lung xenograft model; type: in vivo, mouse
Procedure: The effect of Compound 8 was evaluated in the Calu-6 human NSCLC nude mouse (female Crl:NU(NCr)-Foxn1^nu) xenograft model.

[8] = tested on: rat; assay: Single IV administration in the rat, kidney findings; type: in vivo; details: single dose of cisplatin 7 mg/kg

O=C1[O][Pt]2([NH][C@@H]3CCCC[C@H]3[NH]2)[O]C1=O [Oxaliplatin]
MTV (mean tumor volume) ([1]; Oxaliplatin 7 mg/kg (17.9 uM/kg) IV q3, 7 doses, Day 18): 1251 mm^3 | TGI (tumor growth inhibition) versus vehicle ([1]; Oxaliplatin 7 mg/kg IV q3, 7 doses, Day 18): 61% | Treatment-related effects ([1]; oxaliplatin 7 mg/kg, all animals, Day 18): pale and dehydrated and having petechiae | Mean maximal BW loss ([1]; oxaliplatin 7 mg/kg, printed 'Day 5.3'): 8.1%

N.N.[Cl][Pt][Cl] [Cisplatin]
Treatment-related side effects [2]: No treatment-related side effects | MTV (mean tumor volume) ([3]; Cisplatin 4 mg/kg (13.3 uM/kg) IV every 3 days, 6 doses): 1052 mm^3 | TGI (tumor growth inhibition) versus vehicle ([3]; Cisplatin 4 mg/kg IV every 3 days, 6 doses): 55% | Mean maximal BW loss ([3]; cisplatin 4 mg/kg, Day 5): 2.3% | Response rate in most advanced cancers ([4]; first-line setting): ~50% | Hypersensitivity reactions, patients treated ([4]; human, in vivo): up to 20% | Response rate in most advanced cancers ([4]; second- or third-line setting): 15% | Deaths secondary to malignancy [5]: 13 | MTV (mean tumor volume) ([6]; Cisplatin 3 mg/kg (10 uM/kg) IV twice weekly, 5 doses, Day 31): 823 mm^3 | Mean maximal BW loss ([6]; cisplatin 3 mg/kg, on Day 4): 0.43% | MTV (mean tumor volume) ([7]; Cisplatin 3 mg/kg (10 uM/kg) IV twice weekly for 2 weeks, Day 33): 462 mm^3 | TGI (tumor growth inhibition) versus vehicle ([7]; Cisplatin 3 mg/kg IV twice weekly for 2 weeks, Day 33): 74% | Median TTE (time to endpoint) ([7]; Cisplatin 3 mg/kg IV twice weekly for 2 weeks, Day 54): 52.5 days | BW loss ([7]; cisplatin 3 mg/kg): no BW loss | T-C ([7]; cisplatin 3 mg/kg): 16.7 days | Treatment-related side effects ([7]; cisplatin 3 mg/kg, one animal): severe petechiae on Day 4 | Kidney findings [8]: high incidence of moderate acute tubular necrosis of the kidney
